Source: patent US20050009894A1 (Aventis Pharma S.A., priority 2001, published 2005)
Read-outs that look alike come from different tables or passages of the source.

Molecular target: T1, human KDR enzyme (Homo sapiens, UniProt P35968)
T1 construct: The cytoplasmic domain of human KDR enzyme is cloned in the form of a GST fusion; GST; made in house; host or cells: SF21 insect cells (baculovirus, pFastBac)
Experiment: Phosphorylation of the substrate PLCγ by the enzyme KDR in vitro (flashplate technique)
Assay type: biochemical
Description: The inhibitory effect of the compounds is determined in a test of phosphorylation of a substrate by the enzyme KDR in vitro by the flasplate technique (96-well plate, NEN). The cytoplasmic domain of human KDR enzyme is cloned in the form of a GST fusion into the baculovirus expression vector pFastBac. The protein is expressed in the SF21 cells and purified to about 60% homogeneity.
The kinase activity of KDR is measured in 20 mM MOPS, 10 mM MgCl2, 10 mM MnCl2, 1 mM DTT, 2.5 mM EGTA, 10 mM β-glycerophosphate, pH 7.2 in the presence of 10 mM MgCl2, 100 μM Na3VO4, 1 mM NaF. 10 μl of the compound are added to 70 μl of kinase buffer containing 100 ng of KDR enzyme at 4° C. The reaction is initiated by adding 20 μl of solution containing 2 μg of substrate (fragment SH2-SH3 of PLCγ expressed in the form of a GST fusion protein), 2 μCi γ33P[ATP] and 2 μM cold ATP. After incubating for 1 h at 37° C., the reaction is quenched by adding 1 volume (100 μl) of 200 mM EDTA. The incubation buffer is removed and the wells are washed three times with 300 μl of PBS. The radioactivity is measured in each well using a Top Count NXT instrument (Packard).
Background noise is determined by measuring the radio-activity in wells in quadruplet containing radioactive ATP and the substrate alone.
An activity control is measured in wells in quadruplet containing all the reagents (γ33P-[ATP], KDR and the substrate PLCγ) and in the absence of compound.
The inhibition of the KDR activity with the compound of the invention is expressed as a percentage of inhibition of the control activity determined in the absence of compound.
The compound SU5614 (Calbiochem) (1 μM) is included in each plate as inhibition control.
The IC50 values for the compounds are calculated by plotting the dose-response curves. The IC50 corresponds to the concentration of compound that induces a 50% inhibition of the kinase activity.

[1] = Table VII, degrees of activity by IC50 range, read-out: Activity
[2] = read-out: IC50 (μM) on inhibition of the phosphory-lation of PLCγ by KDR

T1 sequence (P35968 786-1356 limits assumed): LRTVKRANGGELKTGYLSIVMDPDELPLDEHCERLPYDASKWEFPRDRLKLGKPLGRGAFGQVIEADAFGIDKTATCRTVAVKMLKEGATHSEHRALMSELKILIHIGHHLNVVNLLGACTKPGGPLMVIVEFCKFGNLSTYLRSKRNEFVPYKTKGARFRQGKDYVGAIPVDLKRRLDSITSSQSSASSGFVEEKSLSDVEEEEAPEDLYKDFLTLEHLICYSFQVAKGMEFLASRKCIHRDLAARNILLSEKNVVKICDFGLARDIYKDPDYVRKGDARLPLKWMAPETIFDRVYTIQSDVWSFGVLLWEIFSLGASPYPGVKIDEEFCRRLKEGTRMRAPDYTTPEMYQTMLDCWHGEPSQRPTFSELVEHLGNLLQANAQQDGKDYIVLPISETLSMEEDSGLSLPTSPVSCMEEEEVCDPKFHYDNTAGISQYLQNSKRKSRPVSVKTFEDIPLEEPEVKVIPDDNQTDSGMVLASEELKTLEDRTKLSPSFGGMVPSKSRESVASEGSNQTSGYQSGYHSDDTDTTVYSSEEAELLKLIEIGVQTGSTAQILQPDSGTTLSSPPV

IC50 [1]	IC50 [2]	SMILES
0.3 to 3 µM		COc1ccc(-c2ccc3nc(-c4[nH]nc5ccccc45)[nH]c3c2)cc1OC [Example 120, 3-[6-(3,4-Dimethoxy-phenyl)-1H-benzoimidazol-2-yl]-2H-indazole]
< 0.3 µM		O=C(NCc1ccc(Br)cc1F)c1ccc2[nH]c(-c3n[nH]c4ccccc34)nc2c1 [Example 157, 2-(1H-Indazol-3-yl)-1H-benzoimidazole-5-carboxylic acid 4-bromo-2-fluoro-benzylamide]
> 3 µM		CC(C)(C)C(=O)Oc1cc(-c2nc3ccccc3[nH]2)[nH]n1 [Example 215, 2,2-Dimethyl-propionic acid 5-(1H-benzoimidazole-2-yl)-1H-pyrazol-3-yl ester]
> 3 µM		Clc1ccc(-c2ccc3nc(-c4[nH]nc5ccccc45)[nH]c3c2)c(Cl)c1 [Example 98, 3-[6-(2,4-Dichloro-phenyl)-1H-benzoimidazol-2-yl]-2H-indazole]
0.3 to 3 µM		Cc1ccc(F)c(CNC(=O)c2ccc3[nH]c(-c4n[nH]c5ccccc45)nc3c2)c1F [Example 166, 2-(1H-Indazol-3-yl)-1H-benzoimidazole-5-carboxylic acid 2,6-difluoro-3-methyl-benzylamide]
0.3 to 3 µM		CC(=O)c1ccc(-c2ccc3nc(-c4[nH]nc5ccccc45)[nH]c3c2)s1 [Example 128, 1-{5-[2-(2H-Indazol-3-yl)-3H-benzoimidazol-5-yl]-thiophen-2-yl}-ethanone]
> 3 µM		O=C(NCc1cccs1)c1cccc2nc(-c3n[nH]c4ccccc34)[nH]c12 [Example 77, 2-(1H-Indazol-3-yl)-3H-benzoimidazole-4-carboxylic acid (thiophen-2-ylmethyl)-amide]
0.3 to 3 µM		Cc1cc(C)cc(CNC(=O)c2cccc3nc(-c4n[nH]c5ccccc45)[nH]c23)c1 [Example 92, 2-(1H-Indazol-3-yl)-3H-benzoimidazole-4-carboxylic acid 3,5-dimethyl-benzylamide]
> 3 µM		O=C(NCCc1ccccc1)c1cccc2nc(-c3n[nH]c4ccccc34)[nH]c12 [Example 96, 2-(1H-Indazol-3-yl)-3H-benzoimidazole-4-carboxylic acid phenethyl-amide]
< 0.3 µM		NS(=O)(=O)c1ccc(CNC(=O)c2ccc3[nH]c(-c4n[nH]c5ccccc45)nc3c2)cc1 [Example 28, 2-(1H-Indazol-3-yl)-1H-benzoimidazole-5-carboxylic acid 4-(aminosulpnonyl)benzylamide]
0.3 to 3 µM		C(=C\c1ccccc1)/COc1cc(-c2nc3ccccc3[nH]2)[nH]n1 [Example 182, 2-[5-(3-Phenyl-allyloxy)-2H-pyrazol-3-yl]-1H-benzoimidazole]
< 0.3 µM		O=C(NCc1ccc(Cl)cc1Cl)c1ccc2[nH]c(-c3n[nH]c4ccccc34)nc2c1 [Example 167, 2-(1H-Indazol-3-yl)-1H-benzoimidazole-5-carboxylic acid 2,4-dichloro-benzylamide]
< 0.3 µM		O=C(NCc1ccc(Br)cc1)c1ccc2[nH]c(-c3n[nH]c4ccccc34)nc2c1 [Example 30, 2-(1H-Indazol-3-yl)-1H-benzoimidazole-5-carboxylic acid 4-bromo-benzylamide]
0.3 to 3 µM		O=C(NCc1ccc(Oc2ccccc2)cc1)c1ccc2[nH]c(-c3n[nH]c4ccccc34)nc2c1 [Example 48, 2-(1H-Indazol-3-yl)-1H-benzoimidazole-5-carboxylic acid 4-phenoxy-benzylamide]
0.3 to 3 µM		O=C(NCc1ccc(Cl)cc1F)c1ccc2[nH]c(-c3n[nH]c4ccccc34)nc2c1 [Example 158, 2-(1H-Indazol-3-yl)-1H-benzoimidazole-5-carboxylic acid 4-chloro-2-fluoro-benzylamide]
< 0.3 µM		O=C(NCc1csc2ccccc12)c1ccc2[nH]c(-c3n[nH]c4ccccc34)nc2c1 [Example 63, 2-(1H-Indazol-3-yl)-1H-benzoimidazole-5-carboxylic acid (benzo[b]thiophen-3-ylmethyl)-amide]
> 3 µM		O=C(NCc1cccc(Br)c1)c1cccc2nc(-c3n[nH]c4ccccc34)[nH]c12 [Example 81, 2-(1H-Indazol-3-yl)-3H-benzoimidazole-4-carboxylic acid 3-bromo-benzylamide]
> 3 µM		CC(C)(C)C(=O)COc1cc(-c2nc3ccccc3[nH]2)[nH]n1 [Example 205, 1-[5-(1H-Benzoimidazol-2-yl)-1H-pyrazol-3-yloxy]-3,3-dimethyl-butan-2-one]

IC50 [1]	IC50 [2]	SMILES
0.3 to 3 µM		O=C(NCc1ccoc1)c1ccc2[nH]c(-c3n[nH]c4ccccc34)nc2c1 [Example 66, 2-(1H-Indazol-3-yl)-1H-benzoimidazole-5-carboxylic acid (furan-3-ylmethyl)-amide]
0.3 to 3 µM		Cc1ccsc1CNC(=O)c1ccc2[nH]c(-c3n[nH]c4ccccc34)nc2c1 [Example 46, 2-(1H-Indazol-3-yl)-1H-benzoimidazole-5-carboxylic acid (3-methyl-thiophen-2-ylmethyl)-amide]
	0.45 µM	CNC(=O)c1ccc2[nH]c(-c3n[nH]c4ccccc34)nc2c1 [Example 2, 2-(1H-Indazol-3-yl)-1H-benzimidazole-5-carboxylic acid N-methylamide]
	0.45 µM	CC(C)NC(=O)c1ccc2[nH]c(-c3n[nH]c4ccccc34)nc2c1 [Example 4, 2-(1H-Indazol-3-yl)-1H-benzimidazole-5-carboxylic acid N-isopropylamide]
> 3 µM		CN(C)c1ccc(CNC(=O)c2cccc3nc(-c4n[nH]c5ccccc45)[nH]c23)cc1 [Example 78, 2-(1H-Indazol-3-yl)-3H-benzoimidazole-4-carboxylic acid 4-dimethylamino-benzylamide]
< 0.3 µM		Cc1cccc(CNC(=O)c2ccc3[nH]c(-c4n[nH]c5ccccc45)nc3c2)c1 [Example 71, 2-(1H-Indazol-3-yl)-1H-benzoimidazole-5-carboxylic acid 3-methyl-benzylamide]
0.3 to 3 µM		COc1coc(CNC(=O)c2ccc3[nH]c(-c4n[nH]c5ccccc45)nc3c2)cc1=O [Example 146]
0.3 to 3 µM		c1ccc(-c2ccc(COc3cc(-c4nc5ccccc5[nH]4)[nH]n3)cc2)cc1 [Example 193, 2-[5-(Biphenyl-4-ylmethoxy)-2H-pyrazol-3-yl]-1H-benzoimidazole]
> 3 µM		O=C(NCc1ccc(Br)cc1)c1cccc2nc(-c3n[nH]c4ccccc34)[nH]c12 [Example 75, 2-(1H-Indazol-3-yl)-3H-benzoimidazole-4-carboxylic acid 4-bromo-benzylamide]
	3.4 µM	Cc1cc(-c2nc3cc(C)c(C)cc3[nH]2)[nH]n1 [Example 20, 5,6-Dimethyl-2-(5-methyl-2H-pyrazol-3-yl)-1H-benzimidazole]
< 0.3 µM		O=C(NCc1ccc2c(c1)CCO2)c1ccc2[nH]c(-c3n[nH]c4ccccc34)nc2c1 [Example 58, 2-(1H-Indazol-3-yl)-1H-benzoimidazole-5-carboxylic acid (2,3-dihydro-benzofuran-5-ylmethyl)-amide]
0.3 to 3 µM		CC(C)(C)OC(=O)N1CCC(CNC(=O)c2ccc3[nH]c(-c4n[nH]c5ccccc45)nc3c2)CC1 [Example 36, 4-({[2-(1H-Indazol-3-yl)-1H-benzoimidazole-5-carbonyl]-amino}-methyl)-piperidine-1-carboxylic acid tert-butyl ester]
> 3 µM		Cc1ccc(-c2ccc3nc(-c4[nH]nc5ccccc45)[nH]c3c2)cc1 [Example 107, 3-(6-p-Tolyl-1H-benzoimidazol-2-yl)-2H-indazole]
> 3 µM		O=C(COc1cc(-c2nc3ccccc3[nH]2)[nH]n1)c1cc(-c2ccccc2)no1 [Example 203, 2-[5-(1H-Benzoimidazol-2-yl)-1H-pyrazol-3-yloxy]-1-(3-phenyl-isoxazol-5-yl)-ethanone]
	0.16 µM	O=C(NCc1ccco1)c1ccc2[nH]c(-c3n[nH]c4ccccc34)nc2c1 [Example 12, 2-(1H-Indazol-3-yl)-1H-benzimidazole-5-carboxylic acid N-(2-furfuryl)amide]
0.3 to 3 µM		O=C(NCc1ccccc1OC(F)(F)F)c1ccc2[nH]c(-c3n[nH]c4ccccc34)nc2c1 [Example 44, 2-(1H-Indazol-3-yl)-1H-benzoimidazole-5-carboxylic acid 2-trifluoromethoxy-benzylamide]
0.3 to 3 µM		CN(Cc1ccccc1)C(=O)c1ccc2[nH]c(-c3n[nH]c4ccccc34)nc2c1 [Example 152, 2-(1H-Indazol-3-yl)-1H-benzoimidazole-5-carboxylic acid benzyl-methyl-amide]
0.3 to 3 µM		O=C(NCc1ccccc1[N+](=O)[O-])c1cccc2nc(-c3n[nH]c4ccccc34)[nH]c12 [Example 91, 2-(1H-Indazol-3-yl)-3H-benzoimidazole-4-carboxylic acid 2-nitro-benzylamide]
